Source: patent US20090298820A1, “3-SUBSTITUTED-1H-PYRROLO[2,3-B]PYRIDINE AND 3-SUBSTITUTED-1H-PYRROLO[3,2-B]PYRIDINE COMPOUNDS, THEIR USE AS MTOR KINASE AND PI3 KINASE INHIBITORS, AND THEIR SYNTHESES” (Wyeth, priority 2008, published 2009)

Legend:
[1] = target: mTOR (Homo sapiens, UniProt P42345); assay: mTOR enzyme assay (DELFIA format, His6-S6K substrate); assay type: biochemical; conditions: read-out: mTOR Kinase Median IC50
[2] = target: PI3Kα (Homo sapiens, UniProt P42336); assay: PI3K-alpha fluorescence polarization assay; assay type: biochemical; conditions: read-out: PI3Kα Median IC50
[3] = target: PI3Kγ (Homo sapiens, UniProt P48736); assay: PI3K-gamma fluorescence polarization assay; assay type: biochemical; conditions: read-out: PI3Kγ Median IC50
Chain of PI3Kγ (P48736 whole entry, species assumed): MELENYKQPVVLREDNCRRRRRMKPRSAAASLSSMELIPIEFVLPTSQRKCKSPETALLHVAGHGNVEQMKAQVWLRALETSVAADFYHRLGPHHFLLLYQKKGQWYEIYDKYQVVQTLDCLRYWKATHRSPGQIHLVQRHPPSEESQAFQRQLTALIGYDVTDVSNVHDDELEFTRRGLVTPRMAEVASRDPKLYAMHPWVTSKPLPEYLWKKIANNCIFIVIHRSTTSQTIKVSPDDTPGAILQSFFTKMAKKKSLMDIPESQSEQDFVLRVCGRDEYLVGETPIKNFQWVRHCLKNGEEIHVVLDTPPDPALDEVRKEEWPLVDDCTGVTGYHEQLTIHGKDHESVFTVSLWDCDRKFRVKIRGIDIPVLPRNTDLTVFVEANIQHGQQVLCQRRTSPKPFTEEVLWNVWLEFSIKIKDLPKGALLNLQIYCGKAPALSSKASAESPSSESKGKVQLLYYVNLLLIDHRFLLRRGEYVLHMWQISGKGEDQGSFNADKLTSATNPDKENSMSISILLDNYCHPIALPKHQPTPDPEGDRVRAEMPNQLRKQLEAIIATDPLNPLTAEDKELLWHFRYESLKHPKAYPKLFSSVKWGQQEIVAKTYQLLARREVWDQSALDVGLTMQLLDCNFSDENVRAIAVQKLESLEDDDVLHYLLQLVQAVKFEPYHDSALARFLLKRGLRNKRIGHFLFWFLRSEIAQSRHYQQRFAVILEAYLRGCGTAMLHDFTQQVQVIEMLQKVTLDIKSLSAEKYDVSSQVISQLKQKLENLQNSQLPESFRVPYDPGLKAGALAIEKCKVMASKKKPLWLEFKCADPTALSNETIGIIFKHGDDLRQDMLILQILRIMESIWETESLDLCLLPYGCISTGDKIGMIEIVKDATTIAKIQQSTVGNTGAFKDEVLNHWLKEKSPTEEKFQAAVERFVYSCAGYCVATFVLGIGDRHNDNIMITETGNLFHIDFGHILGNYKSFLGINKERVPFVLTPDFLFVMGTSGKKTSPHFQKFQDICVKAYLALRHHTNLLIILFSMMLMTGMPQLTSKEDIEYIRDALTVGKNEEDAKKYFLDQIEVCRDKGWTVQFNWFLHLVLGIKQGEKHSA

Chain of PI3Kα (P42336 whole entry, species assumed): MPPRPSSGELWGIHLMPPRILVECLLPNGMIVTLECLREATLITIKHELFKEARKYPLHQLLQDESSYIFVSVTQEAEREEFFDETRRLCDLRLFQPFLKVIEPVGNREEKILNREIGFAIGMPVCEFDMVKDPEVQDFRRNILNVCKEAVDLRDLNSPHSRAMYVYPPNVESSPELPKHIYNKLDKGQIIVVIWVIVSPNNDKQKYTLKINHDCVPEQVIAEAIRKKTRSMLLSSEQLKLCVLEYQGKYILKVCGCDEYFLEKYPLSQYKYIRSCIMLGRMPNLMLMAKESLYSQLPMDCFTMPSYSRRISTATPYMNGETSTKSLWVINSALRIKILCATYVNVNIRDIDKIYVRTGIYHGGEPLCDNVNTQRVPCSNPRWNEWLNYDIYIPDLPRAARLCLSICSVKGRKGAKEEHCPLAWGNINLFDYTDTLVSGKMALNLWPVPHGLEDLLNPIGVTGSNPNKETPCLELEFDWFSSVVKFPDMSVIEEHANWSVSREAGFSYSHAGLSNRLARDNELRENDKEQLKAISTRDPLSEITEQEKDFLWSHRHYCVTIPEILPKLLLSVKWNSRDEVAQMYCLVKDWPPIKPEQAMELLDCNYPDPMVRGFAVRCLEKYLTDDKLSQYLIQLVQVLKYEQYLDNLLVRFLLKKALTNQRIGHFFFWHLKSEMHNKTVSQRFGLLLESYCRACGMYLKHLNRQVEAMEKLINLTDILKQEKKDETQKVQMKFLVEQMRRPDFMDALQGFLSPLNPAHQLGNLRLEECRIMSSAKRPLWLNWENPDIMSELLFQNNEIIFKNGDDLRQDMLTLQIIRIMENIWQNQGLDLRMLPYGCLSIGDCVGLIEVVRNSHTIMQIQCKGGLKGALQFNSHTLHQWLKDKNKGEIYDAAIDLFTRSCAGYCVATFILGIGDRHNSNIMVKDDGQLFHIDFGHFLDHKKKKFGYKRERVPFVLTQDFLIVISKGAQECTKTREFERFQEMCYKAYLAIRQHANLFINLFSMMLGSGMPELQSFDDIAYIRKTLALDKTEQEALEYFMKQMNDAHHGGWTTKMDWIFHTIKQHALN
Chain of PI3Kα (P27986 whole entry partner, species assumed): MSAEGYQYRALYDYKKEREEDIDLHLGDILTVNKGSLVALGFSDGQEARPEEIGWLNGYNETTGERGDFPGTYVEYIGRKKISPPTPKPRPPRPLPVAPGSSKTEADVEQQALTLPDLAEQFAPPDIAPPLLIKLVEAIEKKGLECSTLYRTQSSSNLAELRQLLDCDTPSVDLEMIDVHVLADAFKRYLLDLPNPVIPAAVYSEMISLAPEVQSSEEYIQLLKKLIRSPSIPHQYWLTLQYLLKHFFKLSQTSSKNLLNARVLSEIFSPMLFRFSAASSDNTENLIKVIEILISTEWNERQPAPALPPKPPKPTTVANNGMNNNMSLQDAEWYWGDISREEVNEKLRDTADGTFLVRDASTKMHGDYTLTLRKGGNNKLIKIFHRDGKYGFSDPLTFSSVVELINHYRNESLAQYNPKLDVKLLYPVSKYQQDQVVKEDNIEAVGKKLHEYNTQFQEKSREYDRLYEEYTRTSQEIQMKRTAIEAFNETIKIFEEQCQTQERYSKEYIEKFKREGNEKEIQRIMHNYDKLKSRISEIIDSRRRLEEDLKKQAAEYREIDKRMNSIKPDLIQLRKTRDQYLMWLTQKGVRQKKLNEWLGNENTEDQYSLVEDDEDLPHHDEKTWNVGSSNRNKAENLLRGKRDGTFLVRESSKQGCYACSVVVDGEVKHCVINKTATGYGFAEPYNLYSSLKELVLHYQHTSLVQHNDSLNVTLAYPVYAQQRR

SMILES	IC50 [1] [µM]	IC50 [2] [µM]	IC50 [3] [µM]	melting point
Cn1cc(/C=C2\Oc3cccc(O)c3C2=O)c2c(N3CCN(C(=O)N4CCCC4)CC3)ccnc21 [Compound 104, (2Z)-4-hydroxy-2-({1-methyl-4-[4-(pyrrolidin-1-ylcarbonyl)piperazin-1-yl]-1H-pyrrolo[2,3-b]pyridin-3-yl}methylene)-1-benzofuran-3(2H)-one]	0.0029	0.07	0.245	223 to 225 °C
CN(C)Cc1ccc(-c2ccnc3c2c(/C=C2\Oc4cccc(O)c4C2=O)cn3C)cc1 [Compound 113, (2Z)-2-[(4-{4-[(dimethylamino)methyl]phenyl}-1-methyl-1H-pyrrolo[2,3-b]pyridin-3-yl)methylene]-4-hydroxy-1-benzofuran-3(2H)-one]	0.02	0.101	0.626	340 to 350 °C
Cn1cc(/C=C2\Oc3ccc(O)cc3C2=O)c2c(-c3ccccc3)ccnc21 [Compound 42, (2Z)-5-hydroxy-2-[(1-methyl-4-phenyl-1H-pyrrolo[2,3-b]pyridin-3-yl)methylene]-1-benzofuran-3(2H)-one]	0.0225	0.129	> 10	352 to 354 °C (dec.)
Cn1cc(/C=C2\Oc3ccc(N)cc3C2=O)c2c(-c3ccccc3)ccnc21 [Compound 58, (2Z)-5-amino-2-[(1-methyl-4-phenyl-1H-pyrrolo[2,3-b]pyridin-3-yl)methylene]-1-benzofuran-3(2H)-one]	0.0165	0.199	0.966	232 to 239 °C
Cn1cc(/C=C2\Oc3ccc(NC(=O)Nc4cccnc4)cc3C2=O)c2c(N3CC4COC(C3)O4)ccnc21 (stereo not drawn) [Compound 282, 1-[(2Z)-2-{[4-(6,8-dioxa-3-azabicyclo[3.2.1]oct-3-yl)-1-methyl-1H-pyrrolo[2,3-b]pyridin-3-yl]methylidene}-3-oxo-2,3-dihydro-1-benzofuran-5-yl]-3-pyridin-3-ylurea]	0.021	0.288	0.642	224 to 227 °C (dec.)
CN(C)CCNC(=O)Nc1ccc2c(c1)C(=O)/C(=C/c1cn(C)c3nccc(N4CC5CCC(C4)O5)c13)O2 [Compound 193, 1-[2-(dimethylamino)ethyl]-3-[(2Z)-2-{[1-methyl-4-(8-oxa-3-azabicyclo[3.2.1]oct-3-yl)-1H-pyrrolo[2,3-b]pyridin-3-yl]methylidene}-3-oxo-2,3-dihydro-1-benzofuran-5-yl]urea]	0.0056	0.024	0.045	175 to 180 °C

The next compounds have a lower IC50 [1] than those just listed; values first:

IC50 [1] [µM]	IC50 [2] [µM]	IC50 [3] [µM]	melting point	SMILES
0.002	0.051	0.131	264 to 268 °C	Cn1cc(/C=C2\Oc3cccc(O)c3C2=O)c2c(N3CCC(C(=O)N4CC5CCC(C4)O5)CC3)ccnc21 [Compound 306, (2Z)-4-hydroxy-2-({1-methyl-4-[4-(8-oxa-3-azabicyclo[3.2.1]oct-3-ylcarbonyl)piperidin-1-yl]-1H-pyrrolo[2,3-b]pyridin-3-yl}methylidene)-1-benzofuran-3(2H)-one]
0.0006	0.031	0.032	191 to 207 °C	Cn1cc(/C=C2\Oc3cccc(O)c3C2=O)c2c(N3CCC(C(=O)N4CCCC4)CC3)ccnc21 [Compound 152, (2Z)-4-hydroxy-2-({1-methyl-4-[4-(pyrrolidin-1-ylcarbonyl)piperidin-1-yl]-1H-pyrrolo[2,3-b]pyridin-3-yl}methylidene)-1-benzofuran-3(2H)-one]
0.002	0.059	0.074	235 to 238 °C	CN(C)C(=O)Nc1ccc(-c2ccnc3c2c(/C=C2\Oc4cccc(O)c4C2=O)cn3C)cc1 [Compound 140, 3-(4-{3-[(Z)-(4-hydroxy-3-oxo-1-benzofuran-2(3H)-ylidene)methyl]-1-methyl-1H-pyrrolo[2,3-b]pyridin-4-yl}phenyl)-1,1-dimethylurea]
